Measurements reported in patent publication US20190264255A1, “Competition Test of an Enzyme Substrate with Internal Compensation for Enzyme Activity” (TECHNISCHE UNIVERSITÄT DARMSTADT, priority 2016, published 2019).

Molecular target: Thrombin (Homo sapiens, UniProt P00734)
Assay: Thrombin cleavage of Z-Gly-Pro-Arg-p-phenylenediamine, photometric detection by oxidative coupling with a-naphthol
Type: biochemical
Details: pH 8; buffer as for fluorescence measurement + 2% Triton X100; substrate cleavage by thrombin
Description: Buffer, substrate and fibrinogen were placed in a 96-well microtiter plate. The enzyme was injected with the injector attached to the TECAN reader. The experimental conditions are set out in the following information. • Substrate conc. Z-Gly-Pro-Arg-aminomethylcoumarin 10 mM in DMSO • Substrate dil. Z-Gly-Pro-Arg-aminomethylcoumarin 1 mM in DMSO • Test buffer 50 mM Tris, 250 mM NaCl, 0.1% PEG6000, pH 8.0 • Haemocomplettan 100 mg/ml dist. water≅44 mg/ml of fibrinogen • Enzyme Solution 1 U/ml in 10 mM HEPES, 0.1% bovine serum albumin, pH 6.4 • Temperature 30 C
Thrombin also cleaves Z-Gly-Pro-Arg-p-phenylenediamine. The product could be detected by oxidative coupling with a-naphthol in the presence of hexacyanoferrate III. The result was a violet dye with Amax=565 nm. The Michaelis-Menten constant at pH 8 (buffer as for fluorescence measurement+2% Triton X100) was 6 μM.

Substance: Z-Gly-Pro-Arg-p-phenylenediamine
- Michaelis-Menten constant: 6 µM
